In patent US20200038338A1, “LONG TERM DRUG DELIVERY BY TATTOO” (priority 2018, published 2020):

What was measured:
[1] = system: basal cell carcinoma (BCC); assay: Treatment of basal cell carcinoma: vismodegib delivered by tattoo machine
psoriatic plaques = assay: Treatment of psoriasis: methotrexate delivered to the dermal layer by tattoo machine; format: in vivo; settings: control: 25 mg/ml methotrexate by injection once a month for 9 months
[2] = system: terminal hairs of beard or scalp (alopecia); assay: Treatment of alopecia: minoxidil delivered to the dermis by tattoo machine; format: in vivo; settings: 5 wt % minoxidil suspension in PEG 400 by tattoo to dermis, once every 2 months, after 6 months (3 sessions); versus control side with minoxidil in water to saturation; three subjects
Method: A suspension of minoxidil suspension at 5 wt % is created in a PEG 400 vehicle. As a control minoxidil is added to water to saturation. The test and control agents are delivered by tattoo machine to the dermis on independent sides of the face (either beard, eyebrow, or scalp) of the same subject once every 2 months for 6 months (i.e. 3 administrations). Three different subjects were tested. The side that was treated in the beard or scalp had approximately 300% more terminal (thick, strong) hairs per unit area, after 6 months (3 sessions).

[3] = system: androgenetic alopecia (hair loss); settings: minoxidil microinjections once a month for four months; cited from earlier work

In the case of `CS(=O)(=O)c1ccc(C(=O)Nc2ccc(Cl)c(-c3ccccn3)c2)c(Cl)c1` [vismodegib], the “side effects, control” value ([1]; control: vismodegib orally for 6 months) is reported as “muscle tremors, loss of appetite, reduction of smell and taste”, the “BCCs resolved, control” value ([1]; control: vismodegib orally, first 6 months) is reported as 50% and the “clearance of the BCC” value ([1]; vismodegib suspension with polyethylene glycol by tattoo machine, once a week for 6 months) is reported as 90%.

For `CN(Cc1cnc2nc(N)nc(N)c2n1)c1ccc(C(=O)N[C@@H](CCC(=O)O)C(=O)O)cc1` [methotrexate], the “side effects, control” value (psoriatic plaques) was “increased liver enzymes”.

For `Nc1cc(N2CCCCC2)nc(N)[n+]1[O-]` [minoxidil], the “more terminal (thick, strong) hairs per unit area on the treated side” value [2] is given as “approximately 300%” and the “side effects noted by the subjects” value [3] is given as “No side effects were noted by the subjects, besides minor localized pain”.
